For data set [1], the system named is HCV replicon. Description: HCV replicon assay: HCV RNA by Q-RT-PCR, 4 days exposure. Particulars: for log reduction at 10 µM: read-out: Corrected HCV RNA log10 reduction at 10 μM. Format: cell-based, hepatitis C virus (HCV). The procedure: Antiviral screening assays can be done in the same media without G418 as follows: in order to keep cells in logarithmic growth phase, seed cells in a 96-well plate at low density, for example 1000 cells per well. Add the test compound immediate after seeding the cells and incubate for a period of 3 to 7 days at 37° C. in an incubator. Media is then removed, and the cells are prepared for total nucleic acid extraction (including replicon RNA and host RNA). Replicon RNA can then be amplified in a Q-RT-PCR protocol, and quantified accordingly. […] This value is called DeltaCt (ΔCt or DCt).
This value is called DeltaCt (ΔCt or dCt).

In data set [2] the test system is Huh-7 cells. As to the kind of experiment: Cellular rRNA levels / cytotoxicity in HCV replicon cells. The note with it: for log10 RNA reduction at 100 μM, rRNA: 4 days, HCV replicon transfected Huh-7 cells. The text has this: In a typical setting, a compound might reduce both the host RNA polymerase activity and the replicon-encoded polymerase activity. Therefore, quantification of rRNA (or any other host RNA polymerase I product) or beta-actin mRNA (or any other host RNA polymerase II) and comparison with RNA levels of the no-drug control is a relative measurement of the effect of the test compound on host RNA polymerases.
With the availability of both the HCV ΔCt data and the rRNA ΔCt, a specificity parameter can be introduced. This parameter is obtained by subtracting both ΔCt values from each other.
IFN-α-2a and ribavirin were tested over a range of concentrations for their ability to reduce the HCV RNA levels in exponentially growing replicon cells after 4 days of exposure as described (Stuyver, L. et al. “A ribonucleoside analogue that blocks the replication of bovine viral diarrhea and hepatitis C viruses in culture” Antimicrob. Agents Chemother. 2003, 47, 244-254).
Gemcitabine was dissolved in DMSO and added to the culture media of a cellular model system of Huh7 cells harboring self-replicating HCV RNA, at final concentrations ranging from […]. In such experiments, one way to express the antiviral effectiveness of a compound is to subtract the threshold reverse-transcriptase polymerase chain reactions (RT-PCR) cycle of the test compound with the average threshold RT-PCR cycle of the negative control. This value is called DeltaCt (ΔCt or dCt). With the availability of both the HCV ΔCt data and the rRNA ΔCt, a specificity parameter can be introduced. This parameter is obtained by subtracting both ΔCt values from each other.

Data set [3] deals with HCV replicon cells (Huh-7). Description: 7-day cell growth dynamics, trypan-blue cell count. The note with it: for effect on cell proliferation: 7-day period, at 96 h EC90 value (ribavirin 100 μM, IFN 100 IU/ml). The procedure:
FIG. 2 is a graphical depiction of the dynamics of cell growth and HCV RNA levels after exposure to control anti-HCV compounds. HCV replicon cells were seeded at approximately 10^4 cells per well in a 24-well plate. Over a 7-day period, cells were counted daily, and rRNA and HCV RNA were quantified by Q-RT-PCR. A: IFN-α-2a at 100 IU/ml; B: ribavirin at 100 μM. ●: cell proliferation in absence of compound; ◯: cell proliferation in presence of compound; ▾: HCV RNA levels in untreated cells; ∇: HCV RNA levels in the presence of compound. The curves shown are averages of 3 independent experiments.
Therefore, experiments were conducted to monitor HCV RNA levels and the cell growth dynamics over a 7-day period.
The dynamics of HCV replicon cells exposed to these inhibitors (at their EC90 value) was monitored over a 7-day period.

The test system of data set [4] is HCV replicon RNA. As to the kind of experiment: 7-day dynamics of HCV RNA levels. Format: cell-based, hepatitis C virus (HCV). Particulars: for effect on HCV RNA levels: 7-day period, at 96 h EC90 value (IFN 100 IU/ml).
Data set [5] deals with HCV replicon RNA. Description: Replicon RNA copy number per cell. In kind it is cell-based, hepatitis C virus (HCV). Particulars: for change in replicon RNA copy number per cell (words): 7-day period, treated versus no-treatment controls. The procedure:
FIG. 4 is a graphical depiction of the log10 changes for replicon RNA levels per cell. The plots were obtained from data collected in FIGS. 2 and 3, in which log10 changes for cell count and replicon RNA levels were subtracted from each other. A. Control antiviral compounds. ●: no drug control; ▾: IFN-α-2a at 100 IU/ml; ▪: ribavirin at 100 μM. B. Selection of the most important anti-metabolites. ●: no drug control; ▾: dFdC at 50 nM; ▪: CP-C at 25 μM; ♦: CPE-C at 2.5 μM; ▴: PALA at 10 μM; ●: PZF at 5 μM.
To express the specificity of the antiviral action of the control compounds versus the anti-metabolites, the log10 change in replicon RNA copy number per cell and per day was calculated from the above experiments.
Background: Replicon systems follow genome replication, usually without infectious particles.

Data set [6] deals with HCV replicon cells. Description: Prevention studies with natural ribo- or 2′-deoxy nucleosides. The note with it: test compound at 96 h EC90 value; nucleosides at 50 μM. Format: cell-based, human.
Data set [7] has as its system HCV. Particulars: cited from earlier work.
Data set [8] concerns HCV. Description: Single treatment of an HCV-infected patient, viral load. Format: in vivo, human. As for the experimental part:
The tolerance was acceptable, and thus the next day the patient was given a second dosage of approximately 700 mg of gemcitabine. Before the second dosage the baseline viral load was 6.49 log copies/mL.

The mark [9] stands for this setting: Hepatitis C virus, 96 h, 100 μM, 4 days, HCV replicon transfected Huh-7 cells, read-out: log10 RNA reduction at 100 μM, HCV.
Where [10] appears, read: second dosage approximately 700 mg.

Where two headings read alike, the source gives them in different places.

With `NC(=O)c1[nH]nc([C@@H]2O[C@H](CO)[C@@H](O)[C@H]2O)c1O` [PZF, pyrazofurin], in data set [1] (Hepatitis C virus, 96 h, read-out: Corrected HCV RNA EC90), the EC90 (in general, the point of the concentration-response curve where the effect stands at 90%) came out at 3800 nM. In addition, in data set [1] (Hepatitis C virus, 96 h), the log reduction at 10 µM came to 1.16 ± 0.21. Also, the log reduction at 100 µM in data set [1] (Hepatitis C virus, 96 h, read-out: Corrected HCV RNA log10 reduction at 100 μM) came to 1.46 ± 0.08; in data set [1] (setting [9]), 1.88 ± 0.05. The “log10 RNA reduction at 100 μM, rRNA” value in data set [2] is listed as 0.42 ± 0.03 log10. The “effect on cell proliferation” value in data set [3] is “reduced cell proliferation only minimally”. The “effect on HCV RNA levels” value in data set [4] is on record as “significantly reduced HCV RNA levels”. Further, in data set [5] (5 μM, after 7 days treatment), the “reduction in replicon RNA levels per cell” value is recorded as 2.96 log10. In data set [5], the “change in replicon RNA copy number per cell (words)” value (“change … per cell (words)” for short) is reported as “time dependent reduction”. For the same molecule, the “prevention of antiviral and cytostatic effects by natural nucleosides” value (from here on “prevention”) in data set [6] is reported as “prevented by addition of uridine”.

Cyclopentylcytosine [CP-C]: the “Corrected HCV RNA log10 reduction at 10 μM” value in data set [1] (10 μM, corrected for rRNA) is 0.64 ± 0.10 log10. In data set [1] (100 μM, 4 days, HCV replicon transfected Huh-7 cells), the “log10 RNA reduction at 100 μM, HCV” value is listed as 1.97 ± 0.38 log10. Besides, the “Corrected HCV RNA log10 reduction at 100 μM” value in data set [1] (100 μM, corrected for rRNA) was found to be 1.06 ± 0.26 log10. For the same molecule, the EC90 in data set [1] (96 h incubation, read-out: Corrected HCV RNA EC90) turned out to be 25000 nM. Further, the “log10 RNA reduction at 100 μM, rRNA” value in data set [2] turned out to be 0.91 ± 0.13 log10. In addition, the “effect on cell proliferation” value in data set [3] is reported as “cytostatic effects”. In addition, the “effect on HCV RNA levels” value in data set [4] is “reduced HCV-replicon RNA levels”. Besides, the “change … per cell (words)” value in data set [5] is recorded as “profile similar to that seen for IFN-α-2a”. The “prevention” value in data set [6] is “addition of cytidine to the culture medium compensated for the inhibitory effects”.

On to `NC(=O)c1ncn([C@@H]2O[C@H](CO)[C@@H](O)[C@H]2O)n1` [Ribavirin, 1-β-D-ribofuranosyl-1-1,2,4-triazole-3-carboxamide], for which the log reduction at 10 µM in data set [1] (Hepatitis C virus, 96 h, 10 μM, corrected for rRNA) is 0.16 ± 0.1. Also, the log reduction at 100 µM in data set [1] (setting [9]) is 1.96 ± 0.28; in data set [1] (Hepatitis C virus, 96 h, 100 μM, corrected for rRNA, read-out: Corrected HCV RNA log10 reduction at 100 μM), 1.05 ± 0.29. Moreover, in data set [1] (Hepatitis C virus, 96 h incubation, read-out: Corrected HCV RNA EC90), the EC90 is roughly 100000 nM. In addition, the “log10 RNA reduction at 100 μM, rRNA” value in data set [2] is recorded as 0.91 ± 0.12 log10. The “log10 reduction in cell growth at day 7 compared to day 0” value in data set [3] (100 μM) was determined as 0.22±0.1 log10. For the same molecule, in data set [3] (100 μM), the “log10 reduction in cell growth compared to the no treatment control on day 7” value came out at 1.53 log10. In data set [3], the “effect on cell proliferation” value was “completely inhibited cell proliferation”. In data set [4] (100 μM), the “HCV RNA reduction on day 7 compared to untreated controls” value is listed as 2.08 log10. Besides, the figures for the “change … per cell (words)” value in data set [5] and in data set [5] (listed as ribavirin) were “only minimally” and “changed only marginally”, respectively. Moreover, the “prevention” value in data set [6] is 2′-deoxyguanosine and guanosine prevented the effects. Besides, in data set [7] (HCV patients), the “effect on serum levels of HCV-RNA” value is “does not lower”. The “patients with serum amino transferase levels reduced to normal” value in data set [7] is on record as 40%.

Regarding `Nc1ccn([C@@H]2O[C@H](CO)[C@@H](O)C2(F)F)c(=O)n1` [dFdC, 2′-deoxy-2′,2′-difluorocytidine], in data set [1] (96 h incubation), the “Corrected HCV RNA EC90” value is “Too toxic”. For the same molecule, the “antiviral activity on HCV replicon RNA” value in data set [1] (HCV replicon cells) is “most potent inhibitor of both replicon RNA and cells”. The log reduction at 10 µM in data set [1] (Hepatitis C virus, 96 h) worked out at 1.32 ± 0.08. For the same molecule, the EC90 in data set [1] (Hepatitis C virus, Huh-7, 96 h, 4-days incubation, Huh7 cells harboring self-replicating HCV RNA, read-out: EC90, reduction of replicon HCV RNA) was roughly 70 nM. Also, the EC50 (in general, the concentration at which the effect is half-maximal) in data set [1] (Hepatitis C virus, Huh-7, Huh7 cells harboring self-replicating HCV RNA, read-out: EC50, reduction of HCV RNA levels) turned out to be 40 nM. In addition, the “log10 RNA reduction, HCV” value in data set [1] (dFdC tested initially at 50 μM) is recorded as 1.87 ± 0.16 log10. The “Corrected HCV RNA log10 reduction” value in data set [1] (dFdC tested initially at 50 μM, corrected for rRNA) is 1.29 ± 0.11 log10. The IC50 (as a rule, the concentration needed to halve the response being measured) in data set [2] (Homo sapiens, Huh-7) turned out to be 240 nM. In addition, the “log10 RNA reduction, rRNA” value in data set [2] (dFdC tested initially at 50 μM) is 0.59 ± 0.05 log10. For the same molecule, the non-cytotoxic concentration result in data set [3] (range of testing 50-1,000 nM, 7-day dynamics) is given as “could not be found”. The “prevention” value in data set [6] was “prevented by 2′-deoxycytidine”. For the same molecule, in data set [8] (patient with multifocal HCC, cirrhosis, ischaemic hepatitis, listed as gemcitabine), the “tolerance / adverse events” value is on record as “heart problems”. Further, the “baseline viral load before the second dosage” value in data set [8] (patient, day after 1200 mg gemcitabine HCl with oxaliplatine) turned out to be 6.49 log copies/mL. Moreover, in data set [8] (setting [10]), the “HCV RNA eight hours after the second dosage” value stood at 4.04 log copies/mL and the “drop in HCV RNA in eight hours” value is on record as roughly 2.5 log.

(Values after patent US20050049220A1, “Dosing regimen for Flaviviridae therapy” (priority 2003, published 2005).)
